Test results reported in paper PMC5368959, “Uricosuric targets of tranilast” (Pharmacology Research & Perspectives, 2017).
Where two headings read alike, the source gives them in different places. One block for each compound: values may come before it.

Experiments:
Format in all cases: cell-based
[1] = molecular target: T1, URAT1 (Homo sapiens, UniProt Q96S37); test: [14C]-urate uptake by URAT1-expressing Xenopus oocytes
T1 sequence (Q96S37 1-553): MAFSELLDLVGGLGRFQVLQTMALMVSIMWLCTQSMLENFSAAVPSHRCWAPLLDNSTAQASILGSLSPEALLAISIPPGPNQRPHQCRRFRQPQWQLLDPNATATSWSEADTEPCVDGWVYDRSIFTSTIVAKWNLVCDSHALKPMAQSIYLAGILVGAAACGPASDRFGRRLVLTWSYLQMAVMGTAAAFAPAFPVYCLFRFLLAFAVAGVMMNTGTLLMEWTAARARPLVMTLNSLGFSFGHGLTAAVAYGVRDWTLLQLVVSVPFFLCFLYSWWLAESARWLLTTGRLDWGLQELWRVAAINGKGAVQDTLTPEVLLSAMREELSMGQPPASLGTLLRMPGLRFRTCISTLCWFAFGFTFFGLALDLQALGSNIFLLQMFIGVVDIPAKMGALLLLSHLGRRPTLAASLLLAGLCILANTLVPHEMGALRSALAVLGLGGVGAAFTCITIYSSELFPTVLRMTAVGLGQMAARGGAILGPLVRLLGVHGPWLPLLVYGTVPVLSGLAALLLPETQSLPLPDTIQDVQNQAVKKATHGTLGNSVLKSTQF
Description: (§1) For uptake experiments, oocytes were washed four times with ND96 medium (pH 7.4) without pyruvate and gentamycin.

[2] = molecular target: T2, OAT4 (Homo sapiens, UniProt Q9NSA0); test: [14C]-urate uptake by OAT4-expressing Xenopus oocytes; settings: for cis-inhibition of OAT4-mediated, maleate trans-stimulated urate uptake: 10 mM extracellular anion; for trans-stimulatory effect of preloaded anion on OAT4-mediated urate uptake: preinjected 50 nL of 100 mmol/L
T2 sequence (Q9NSA0 1-550): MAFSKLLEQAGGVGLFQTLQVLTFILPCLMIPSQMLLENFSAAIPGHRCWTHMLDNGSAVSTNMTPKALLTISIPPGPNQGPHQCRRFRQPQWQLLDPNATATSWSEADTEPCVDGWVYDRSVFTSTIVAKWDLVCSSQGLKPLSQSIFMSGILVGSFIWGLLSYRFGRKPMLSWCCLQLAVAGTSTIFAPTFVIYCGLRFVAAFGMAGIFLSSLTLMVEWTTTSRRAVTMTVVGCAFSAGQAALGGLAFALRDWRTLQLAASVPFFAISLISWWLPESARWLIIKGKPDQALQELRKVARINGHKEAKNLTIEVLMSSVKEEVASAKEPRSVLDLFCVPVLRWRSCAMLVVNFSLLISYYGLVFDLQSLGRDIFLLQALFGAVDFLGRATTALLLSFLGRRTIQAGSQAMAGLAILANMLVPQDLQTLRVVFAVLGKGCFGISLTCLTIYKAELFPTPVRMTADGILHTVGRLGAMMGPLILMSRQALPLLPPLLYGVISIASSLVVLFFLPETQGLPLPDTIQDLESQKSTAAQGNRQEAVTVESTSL
Experimental: as §1
(A) The uptake of [^14C]‐urate by OAT4‐expressing oocytes was performed in ND96 medium (pH 7.4) at ~25°C for 1 h. Na^+‐dependence was examined by replacing extracellular NaCl by KCl. […] (B) The inhibition of [^14C]‐urate uptake by OAT4 was examined in the presence of extracellular organic anions (for cis‐inhibition) or uricosuric drugs at the indicated concentrations. […] Data are mean ± S.E. with n = 12–15.

[3] = molecular target: T1, URAT1; test: [14C]-nicotinate uptake by URAT1-expressing Xenopus oocytes; settings: for cis-inhibition of URAT1-mediated [14C]-nicotinate uptake by extracellular anion: data not shown
Description: as §1
Data are mean ± S.E. with n = 12–15.

[4] = molecular target: T3, OAT3 (Mus musculus, UniProt O88909); test: [14C]-urate uptake by OAT3-expressing Xenopus oocytes
T3 sequence (O88909 1-537): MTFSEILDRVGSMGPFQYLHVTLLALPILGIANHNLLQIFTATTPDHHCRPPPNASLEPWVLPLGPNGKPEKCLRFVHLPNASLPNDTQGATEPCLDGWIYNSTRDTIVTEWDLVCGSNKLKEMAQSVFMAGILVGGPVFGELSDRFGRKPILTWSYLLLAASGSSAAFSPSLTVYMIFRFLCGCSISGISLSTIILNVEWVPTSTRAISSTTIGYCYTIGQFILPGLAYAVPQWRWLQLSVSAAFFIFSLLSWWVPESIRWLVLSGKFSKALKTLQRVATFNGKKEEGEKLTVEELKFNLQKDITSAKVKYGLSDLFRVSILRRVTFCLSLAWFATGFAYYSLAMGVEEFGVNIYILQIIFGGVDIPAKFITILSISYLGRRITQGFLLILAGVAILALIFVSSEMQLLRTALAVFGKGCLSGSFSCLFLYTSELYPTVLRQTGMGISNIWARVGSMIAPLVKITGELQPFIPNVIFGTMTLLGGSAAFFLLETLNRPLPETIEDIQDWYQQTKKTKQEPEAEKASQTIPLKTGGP
Experimental: as §1
The uptake of [^14C]‐urate (40 μmol/L) was performed in ND96 medium (pH 7.4) at ~25°C for 1 h.

[5] = molecular target: T4, GLUT9a (Homo sapiens, UniProt Q9NRM0); test: [14C]-urate uptake by GLUT9a-expressing Xenopus oocytes
T4 sequence (Q9NRM0 1-540): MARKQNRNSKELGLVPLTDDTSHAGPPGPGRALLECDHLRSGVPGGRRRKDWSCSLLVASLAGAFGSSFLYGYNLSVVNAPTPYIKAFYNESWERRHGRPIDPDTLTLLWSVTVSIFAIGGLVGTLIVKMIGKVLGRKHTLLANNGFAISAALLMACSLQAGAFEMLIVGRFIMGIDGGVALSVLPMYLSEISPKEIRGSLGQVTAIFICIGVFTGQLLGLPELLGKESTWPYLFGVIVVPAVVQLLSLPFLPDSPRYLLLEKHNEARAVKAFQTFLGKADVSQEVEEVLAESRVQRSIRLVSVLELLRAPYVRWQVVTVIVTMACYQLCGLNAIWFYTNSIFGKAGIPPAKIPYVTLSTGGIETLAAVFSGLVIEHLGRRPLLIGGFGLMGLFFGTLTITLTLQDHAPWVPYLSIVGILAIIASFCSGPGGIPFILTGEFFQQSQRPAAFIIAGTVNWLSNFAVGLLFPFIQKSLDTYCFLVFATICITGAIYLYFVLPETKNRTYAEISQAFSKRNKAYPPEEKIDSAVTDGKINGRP
Description: as §1
We sought to investigate the effect of tranilast on GLUT9a‐mediated [^14C]‐urate uptake in Xenopus laevis oocytes.

[6] = molecular target: T5, OAT10 (Homo sapiens, UniProt Q9Y226); test: [14C]-nicotinate uptake by OAT10-expressing Xenopus oocytes; settings: preloaded with nonlabeled anion; ND96
T5 sequence (Q9Y226 whole entry): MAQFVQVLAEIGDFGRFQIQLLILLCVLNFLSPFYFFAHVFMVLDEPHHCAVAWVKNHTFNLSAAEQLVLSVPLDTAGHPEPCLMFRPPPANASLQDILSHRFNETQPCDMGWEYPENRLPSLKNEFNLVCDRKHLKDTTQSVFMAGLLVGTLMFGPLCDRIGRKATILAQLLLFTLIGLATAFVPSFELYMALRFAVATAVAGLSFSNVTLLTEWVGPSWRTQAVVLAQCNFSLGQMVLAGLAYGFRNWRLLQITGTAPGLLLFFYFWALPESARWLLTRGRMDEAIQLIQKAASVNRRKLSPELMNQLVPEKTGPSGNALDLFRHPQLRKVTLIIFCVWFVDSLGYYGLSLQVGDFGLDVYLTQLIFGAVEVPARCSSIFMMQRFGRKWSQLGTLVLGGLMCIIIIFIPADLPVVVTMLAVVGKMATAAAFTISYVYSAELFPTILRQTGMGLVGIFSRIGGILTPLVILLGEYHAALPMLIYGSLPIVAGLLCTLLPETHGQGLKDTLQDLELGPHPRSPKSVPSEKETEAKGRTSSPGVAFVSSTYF
Experimental: as §1
Chloride ion‐dependence was also assessed; in 0 Cl^− bath, NaCl was replaced by Na‐gluconate (Na‐Gluc), KCl by K‐gluconate (K‐Gluc), MgCl2 by Mg‐gluconate, and CaCl2 by Ca‐gluconate. […] Data are mean ± S.E. with n = 12–15.

[7] = molecular target: T5, OAT10; test: [14C]-urate uptake by OAT10-expressing Xenopus oocytes; settings: preloaded 50 nL of 100 mmol/L
Description: as §1
(A) Time course of [^14C]‐urate uptake by control and […] oocytes. […] Inset, western blot analysis of OAT10 protein expressed in oocytes. […] (C) [^14C]‐urate transport properties of OAT10: voltage sensitivity and Na+‐dependence was examined by replacing extracellular NaCl by KCl or LiCl. Existence of urate/Cl^− exchange mechanism or Cl^− dependence or cis‐inhibitory effects of extracellular Cl^− on was verified by [^14C]‐urate uptake via OAT10 in the absence of extracellular Cl^− ion (0 Cl^−). In 0 Cl^− bath, NaCl was replaced by Na‐gluconate (Na‐Gluc), KCl by K‐gluconate (K‐Gluc), MgCl2 by Mg‐gluconate, and CaCl2 by Ca‐gluconate. […] Data are mean ± S.E. with n = 12–15.

SMILES: Nc1ccc(C(=O)NCC(=O)O)cc1 [PAH, para‐aminohippurate]
trans-stimulatory effect of preloaded intracellular anion on URAT1-mediated urate uptake [1]: did not however detect any significant trans‐stimulatory effect | cis-inhibition of URAT1-mediated urate uptake by extracellular organic anion ([1]; 10 mM extracellular anion): not cis‐inhibited

SMILES: O=C(O)C(=O)O [oxalate]
cis-inhibition of URAT1-mediated urate uptake by extracellular organic anion ([1]; 10 mM extracellular anion): not cis‐inhibited

cis-inhibition of OAT4-mediated, maleate trans-stimulated urate uptake [2]: much less cis‐inhibition | trans-stimulatory effect of preloaded anion on OAT4-mediated urate uptake [2]: no significant effects | cis-inhibition of URAT1-mediated urate uptake by extracellular organic anion [1]: not cis‐inhibited
SMILES: O=C(O)CCC(=O)O [succinate]

cis-inhibition of URAT1-mediated urate uptake by extracellular organic anion ([1]; 10 mM extracellular anion): not cis‐inhibited
SMILES: CC(O)C(=O)O (stereo not shown) [lactate]
trans-stimulatory effect of preloaded intracellular anion on URAT1-mediated urate uptake [1]: did not however detect any significant trans‐stimulatory effect

SMILES: O=c1[nH]c(=O)c2[nH]c(=O)[nH]c2[nH]1 [urate]
cis-inhibition of URAT1-mediated [14C]-nicotinate uptake by extracellular anion [3]: cis‐inhibited

SMILES: O=C(O)CC(O)(CC(=O)O)C(=O)O [citrate]
cis-inhibition of URAT1-mediated urate uptake by extracellular organic anion ([1]; 10 mM extracellular anion): not cis‐inhibited

SMILES: CC(=O)C(=O)O [pyruvate]
cis-inhibition of URAT1-mediated urate uptake by extracellular organic anion ([1]; 10 mM extracellular anion): not cis‐inhibited

SMILES: O=C(O)c1cnccn1 [PZA, pyrazine carboxylate]
cis-inhibition of OAT3-mediated urate uptake by extracellular anion ([4]; 10 mmol/L extracellular anion): almost completely cis‐inhibited | Effect of preloaded intracellular anion on OAT3 [14C]-urate uptake (trans-stimulation) ([4]; preloaded anion): did not have any effect | trans-stimulatory effect of preloaded anion on OAT4-mediated urate uptake [2]: no significant effects | Effect of extracellular anion on GLUT9a activity ([5]; Fig. 2C): no effect | cis-inhibition of URAT1-mediated urate uptake by extracellular organic anion ([1]; 10 mM extracellular anion): cis‐inhibition | URAT1 urate uptake after preloading with anion (trans-stimulation), fold over preloaded control oocytes ([1]; oocytes preloaded with nonlabeled anion): 70–75 fold | OAT10 [14C]-nicotinate uptake after preloading, fold over PZA-preloaded control oocytes [6]: 118–120 fold | cis-inhibition of URAT1-mediated [14C]-nicotinate uptake by extracellular anion [3]: cis‐inhibited | URAT1 [14C]-nicotinate uptake after preloading (trans-stimulation), fold over water-injected control oocytes ([3]; preloaded anion): 19–20 fold | trans-stimulatory effect of preloaded anion on OAT10-mediated urate uptake [7]: modest trans‐stimulatory effect

SMILES: O=C(O)/C=C\C(=O)O [maleate]
cis-inhibition of OAT4-mediated, maleate trans-stimulated urate uptake [2]: efficiently cis‐inhibited | trans-stimulatory effect of preloaded anion on OAT4-mediated urate uptake [2]: modest trans‐stimulatory effect | cis-inhibition of URAT1-mediated urate uptake by extracellular organic anion ([1]; 10 mM extracellular anion): not cis‐inhibited

Effect of extracellular anion on GLUT9a activity [5]: no effect | cis-inhibition of URAT1-mediated urate uptake by extracellular organic anion [1]: cis‐inhibition | cis-inhibition of URAT1-mediated [14C]-nicotinate uptake by extracellular anion [3]: cis‐inhibited
SMILES: O=C(O)c1ccccc1O [salicylate]

SMILES: CC(O)CC(=O)O (stereo not drawn) [BHB, β‐hydroxy butyrate]
trans-stimulatory effect of preloaded intracellular anion on URAT1-mediated urate uptake [1]: did not however detect any significant trans‐stimulatory effect | cis-inhibition of URAT1-mediated urate uptake by extracellular organic anion ([1]; 10 mM extracellular anion): not cis‐inhibited | trans-stimulatory effect of preloaded anion on OAT10-mediated urate uptake [7]: modest trans‐stimulatory effect

SMILES: O=CO [formate]
cis-inhibition of URAT1-mediated urate uptake by extracellular organic anion [1]: not cis‐inhibited
